Laboratory results as given in patent US9233978B2, “6-fused heteroaryldihydropyrimidines for the treatment and prophylaxis of hepatitis B virus infection” (Hoffmann-La Roche Inc., priority 2014, dated 2016).
Converted amounts (≈) assume the structure as drawn.

What was measured:
HBV = assay: Anti-HBV activity in vitro, HepG2.2.15 cells, extracellular HBV DNA by qPCR; assay type: cell-based; conditions: Hepatitis B virus, HepG2.2.15, 120 h, HepG2.2.15 cells; HBV replication inhibited by 50%, extracellular HBV DNA by qPCR; five days after compound treatment; read-out: EC50
How it was run: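 Extracellular HBV DNA in culture supernatant was measured by qPCR after nucleic acid extraction. The supernatant came from constitutively replicating HepG2.2.15 cells exposed for five days to half-log-diluted compounds, with DMSO at 0.5% final. Cells had been plated overnight at 37 °C beforehand.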

[1] = Cytotoxicity in HepDE19 cells (CCK-8) and selectivity index; assay type: cell-based; conditions: human, HepDE19 cells; CCK-8 cell viability; five days after treatment
Excerpt: (§1) HepG2.2.15 and HepDE19 are stably-transfected cell lines containing the HBV genome. Both cell lines are derived from the hepatoblastoma cell line Hep G2 (American Type Culture Collection, ATCC® HB-8065™) by the published procedures described in references: MA Selles et al. Proc. Natl. Acad. Sci. USA 1987, 84, 1005-1009 and H Guo et al. Journal of Virology 2007, 81, 12472-12484, respectively. Both cell lines were maintained in Dulbecco's modified Eagle's medium (DMEM)-F12 medium supplemented with 10% fetal bovine serum, 100 U/mL penicillin, 100 μg/mL streptomycin, and 0.5 mg/mL of G418.
(§2) HepDE19 cells were seeded into 96-well plates (5×10^3 cells per well) and treated with compounds for EC50 determination. Five days after treatment, cell viability was measured by addition of 20 μL of CCK-8 reagent. Two hours after incubation at 37° C., the absorbance at wavelengths of 450 nm and 630 nm (OD450 and OD630) was recorded by a plate reader. The concentration results in the death of 50% of the host cells (CC50) of each compound were determined.
(§3) The relative effectiveness of the compound in inhibiting viral replication compared to inducing cell death was defined as the selectivity index (CC50 value/EC50 value). Based on CC50 and EC50 data, selectivity indexes were determined.

HepDE19 cells = assay: as above; assay type: cell-based; conditions: CC50 (HepDE19) value / EC50 (HepG2.2.15) value
Excerpt: as §1, §2, §3

[2] = Human microsomal metabolic stability; assay type: in vitro ADME; conditions: human microsomes 0.5 mg/mL, 1 μM test compound, NADPH, 37° C., pH 7.4, 0-30 minutes
How it was run: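 1 μM compound with 0.5 mg/mL human liver microsomal protein in 100 mM phosphate pH 7.4 at 37° C, started with 1 mM NADPH or a NADPH-regenerating system. Sampled at 0–30 min, quenched in cold methanol with tolbutamide internal standard; remaining parent quantified by LC-MS/MS.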

Lysa solubility = assay type: physicochemical; conditions: 0.05 M phosphate buffer (pH 6.5); for solubility thermodynamic: phosphate buffer, pH 6.5, aqueous buffer, thermodynamic from solid
How it was run: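 Duplicate samples dried from 10 mM DMSO stocks, taken up in 0.05 M phosphate buffer pH 6.5, stirred 1 h, shaken 2 h and left overnight. Filtrate and 1/10 dilution quantified by direct UV or HPLC-UV, in μg/mL; above 80% of the calculated maximum, reported as greater than that value.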

SMILES: COC(=O)C1=C(CN2CCN3C(=O)N(C4CC5(CC(C(=O)O)C5)C4)C[C@@H]3C2)NC(c2nccs2)=N[C@H]1c1ccc(F)cc1Cl (stereo partly drawn) [Example 79, 2-[(8aS)-7-[[(4R)-4-(2-chloro-4-fluoro-phenyl)-5-methoxycarbonyl-2-thiazol-2-yl-1,4-dihydropyrimidin-6-yl]methyl]-3-oxo-5,6,8,8a-tetrahydro-1H-imidazo[1,5-a]pyrazin-2-yl]spiro[3.3]heptane-6-carboxylic acid]
- EC50 (HBV): 8 nM
- CC50 at 5 days [1]: 52000 nM
- Selectivity index (CC50/EC50) (HepDE19 cells): 6500
- Human Microsomal Clearance [2]: 3.6 mL/min/kg
- solubility thermodynamic (Lysa solubility): 180 µg/mL (≈ 280 µM)

SMILES: CCOC(=O)C1=C(CN2CCN3C(=O)N(Cc4ccc(C(=O)O)cc4)CC3C2)NC(c2nccs2)=N[C@H]1c1cccc(F)c1Cl (stereo partly drawn) [Example 66, (R)-6-[2-(4-Carboxy-benzyl)-3-oxo-hexahydro-imidazo[1,5-a]pyrazin-7-ylmethyl]-4-(2-chloro-3-fluoro-phenyl)-2-thiazol-2-yl-1,4-dihydro-pyrimidine-5-carboxylic acid ethyl ester]
- EC50 (HBV): 4 nM
- CC50 at 5 days [1]: 60000 nM
- Selectivity index (CC50/EC50) (HepDE19 cells): 15000
- Human Microsomal Clearance [2]: 7.1 mL/min/kg

SMILES: CCOC(=O)C1=C(CN2CCN3C(=O)N(CC(C)C)C[C@@H]3[C@H]2C(=O)O)NC(c2nccs2)=N[C@H]1c1cccc(F)c1Cl (single isomer, unassigned) [Example 101B]
- EC50 (HBV): 0.8 nM
- CC50 at 5 days [1]: > 100000 nM
- Selectivity index (CC50/EC50) (HepDE19 cells): >100000
- Human Microsomal Clearance [2]: 6.1 mL/min/kg

SMILES: COC(=O)C1=C(CN2CCN3C(=O)N(C(C)C)C[C@@H]3[C@H]2C(=O)O)NC(c2nccs2)=N[C@H]1c1ccc(F)c(F)c1C (single isomer, unassigned) [Example 85B]
- EC50 (HBV): 6 nM
- CC50 at 5 days [1]: > 100000 nM
- Selectivity index (CC50/EC50) (HepDE19 cells): >16667
- Lysa (Lysa solubility): 770 µg/mL

SMILES: COC(=O)C1=C(CN2CCN3C(=O)N(C4CC4)C[C@@H]3[C@H]2C(=O)O)NC(c2nccs2)=N[C@H]1c1ccc(F)c(F)c1C (single isomer, unassigned) [Example 83B]
- EC50 (HBV): 9 nM
- CC50 at 5 days [1]: > 100000 nM
- Selectivity index (CC50/EC50) (HepDE19 cells): >11111
- Human Microsomal Clearance [2]: 2.9 mL/min/kg
- Lysa (Lysa solubility): 780 µg/mL

SMILES: COC(=O)C1=C(CN2CCN3C(=O)N(Cc4ccc(C(=O)O)cc4)CC3C2)NC(c2nccs2)=N[C@H]1c1ccc(F)cc1Cl (stereo partly drawn) [Example 65, (R)-6-[2-(4-Carboxy-benzyl)-3-oxo-hexahydro-imidazo[1,5-a]pyrazin-7-ylmethyl]-4-(2-chloro-4-fluoro-phenyl)-2-thiazol-2-yl-1,4-dihydro-pyrimidine-5-carboxylic acid methyl ester]
- EC50 (HBV): 9 nM
- CC50 at 5 days [1]: > 100000 nM
- Selectivity index (CC50/EC50) (HepDE19 cells): >11111
- Human Microsomal Clearance [2]: 6.2 mL/min/kg
- solubility thermodynamic (Lysa solubility): 194 µg/mL (≈ 304 µM)

SMILES: COC(=O)C1=C(CN2CCN3C(=O)OC[C@@H]3C2)NC(c2nccs2)=N[C@H]1c1ccc(F)cc1Cl [Example 4, Methyl (4R)-6-[[(8aS)-3-oxo-5,6,8,8a-tetrahydro-1H-oxazolo[3,4-a]pyrazin-7-yl]methyl]-4-(2-chloro-4-fluoro-phenyl)-2-thiazol-2-yl-1,4-dihydropyrimidine-5-carboxylate]
- EC50 (HBV): 3 nM
- CC50 at 5 days [1]: 79000 nM
- Selectivity index (CC50/EC50) (HepDE19 cells): 23872

SMILES: CCOC(=O)C1=C(CN2CCN3C(=O)N(C(C)C)C[C@@H]3[C@H]2C(=O)O)NC(c2nccs2)=N[C@H]1c1cccc(F)c1Cl (single isomer, unassigned) [Example 84B]
- EC50 (HBV): 1 nM
- CC50 at 5 days [1]: > 100000 nM
- Selectivity index (CC50/EC50) (HepDE19 cells): >100000
- Human Microsomal Clearance [2]: 3.6 mL/min/kg
- Lysa (Lysa solubility): 770 µg/mL

SMILES: COC(=O)C1=C(CN2CCN3C(=O)N(CC(C)(C)C(=O)O)C[C@@H]3C2)NC(c2nccs2)=N[C@H]1c1cccc(F)c1C [Example 44, 3-[(8aS)-7-[[(4S)-4-(3-fluoro-2-methyl-phenyl)-5-methoxycarbonyl-2-thiazol-2-yl-1,4-dihydropyrimidin-6-yl]methyl]-3-oxo-5,6,8,8a-tetrahydro-1H-imidazo[1,5-a]pyrazin-2-yl]-2,2-dimethyl-propanoic acid]
- EC50 (HBV): 16 nM
- CC50 at 5 days [1]: > 100000 nM
- Selectivity index (CC50/EC50) (HepDE19 cells): >6369
- Human Microsomal Clearance [2]: 1.7 mL/min/kg
- solubility thermodynamic (Lysa solubility): 207 µg/mL (≈ 354 µM)

SMILES: COC(=O)C1=C(CN2CCN3C(=O)N(C4CCC(C(=O)O)C4)C[C@@H]3C2)NC(c2nccs2)=N[C@H]1c1ccc(F)cc1Cl (mixture of isomers) [Example 61, (R)-6-[(S)-2-((1R,3S)-3-Carboxy-cyclopentyl)-3-oxo-hexahydro-imidazo[1,5-a]pyrazin-7-ylmethyl]-4-(2-chloro-4-fluoro-phenyl)-2-thiazol-2-yl-1,4-dihydro-pyrimidine-5-carboxylic acid methyl ester and (R)-6-[(S)-2-((1S,3R)-3-Carboxy-cyclopentyl)-3-oxo-hexahydro-imidazo[1,5-a]pyrazin-7-ylmethyl]-4-(2-chloro-4-fluoro-phenyl)-2-thiazol-2-yl-1,4-dihydro-pyrimidine-5-carboxylic acid methyl ester]
- EC50 (HBV): 12 nM
- CC50 at 5 days [1]: > 100000 nM
- Selectivity index (CC50/EC50) (HepDE19 cells): >8333
- Human Microsomal Clearance [2]: 0.4 mL/min/kg
- solubility thermodynamic (Lysa solubility): > 742 µg/mL

SMILES: COC(=O)C1=C(CN2CCN3C(=O)N(CC4(C(=O)O)CC4)C[C@@H]3C2)NC(c2nccs2)=N[C@H]1c1ccc(F)cc1Cl [Example 35, 1-[[(8aS)-7-[[(4R)-4-(2-chloro-4-fluoro-phenyl)-5-methoxycarbonyl-2-thiazol-2-yl-1,4-dihydropyrimidin-6-yl]methyl]-3-oxo-5,6,8,8a-tetrahydro-1H-imidazo[1,5-a]pyrazin-2-yl]methyl]cyclopropanecarboxylic acid]
- EC50 (HBV): 11 nM
- CC50 at 5 days [1]: > 100000 nM
- Selectivity index (CC50/EC50) (HepDE19 cells): >9259
- Human Microsomal Clearance [2]: 0.3 mL/min/kg
- solubility thermodynamic (Lysa solubility): > 754 µg/mL

SMILES: CCOC(=O)C1=C(CN2CCN3C(=O)N(c4ccc(C(=O)O)cc4)C[C@@H]3C2)NC(c2nccs2)=N[C@H]1c1cccc(F)c1Cl [Example 26, (R)-6-[(S)-2-(4-Carboxy-phenyl)-3-oxo-hexahydro-imidazo[1,5-a]pyrazin-7-ylmethyl]-4-(2-chloro-3-fluoro-phenyl)-2-thiazol-2-yl-1,4-dihydro-pyrimidine-5-carboxylic acid ethyl ester]
- EC50 (HBV): 2 nM
- CC50 at 5 days [1]: 28000 nM
- Selectivity index (CC50/EC50) (HepDE19 cells): 18620

SMILES: CCOC(=O)C1=C(CN2CCN3C(=O)NCC3(C(=O)OC)C2)NC(c2nccs2)=N[C@H]1c1cccc(F)c1Cl (stereo partly drawn) [Example 24, Methyl 7-[[(4R)-4-(2-chloro-3-fluoro-phenyl)-5-ethoxycarbonyl-2-thiazol-2-yl-1,4-dihydropyrimidin-6-yl]methyl]-3-oxo-2,5,6,8-tetrahydro-1H-imidazo[1,5-a]pyrazine-8a-carboxylate]
- EC50 (HBV): 1 nM
- CC50 at 5 days [1]: 53000 nM
- Selectivity index (CC50/EC50) (HepDE19 cells): 37857

SMILES: CCOC(=O)C1=C(CN2CCN3C(=O)N(CC4(C(=O)O)CCC4)C[C@@H]3C2)NC(c2nccs2)=N[C@H]1c1cccc(F)c1Cl [Example 60, 6-[(S)-2-(1-Carboxy-cyclobutylmethyl)-3-oxo-hexahydro-imidazo[1,5-a]pyrazin-7-ylmethyl]-4-((R)-2-chloro-3-fluoro-phenyl)-2-thiazol-2-yl-1,4-dihydro-pyrimidine-5-carboxylic acid ethyl ester]
- EC50 (HBV): 6 nM
- CC50 at 5 days [1]: 68000 nM
- Selectivity index (CC50/EC50) (HepDE19 cells): 11333
- solubility thermodynamic (Lysa solubility): 436 µg/mL (≈ 691 µM)

SMILES: CCOC(=O)C1=C(CN2CCN3C(=O)NC[C@@H]3C2)NC(c2nccs2)=N[C@H]1c1ccc(F)cc1Br [Example 14, Ethyl (4R)-6-[[(8aR)-3-oxo-1,2,5,6,8,8a-hexahydroimidazo[1,5-a]pyrazin-7-yl]methyl]-4-(2-bromo-4-fluoro-phenyl)-2-thiazol-2-yl-1,4-dihydropyrimidine-5-carboxylate]
- EC50 (HBV): 2 nM
- CC50 at 5 days [1]: 23000 nM
- Selectivity index (CC50/EC50) (HepDE19 cells): 13016

SMILES: CCOC(=O)C1=C(CN2CCN3C(=O)N(CC4CC4)C[C@@H]3[C@H]2C(=O)O)NC(c2nccs2)=N[C@H]1c1cccc(F)c1Cl (single isomer, unassigned) [Example 97B]
- EC50 (HBV): 0.9 nM
- CC50 at 5 days [1]: > 100000 nM
- Selectivity index (CC50/EC50) (HepDE19 cells): >100000
